Patent publication US11021493B2, “1,4-thiazine dioxide and 1,2,4-thiadiazine dioxide derivatives as beta-secretase inhibitors and methods of use” (AMGEN INC., priority 2016, dated 2021)
pIC50: −log10 of the molar value.

How the values were obtained:
[1] = target: β-secretase (Rattus norvegicus (Rat), UniProt P56819); assay: In vivo inhibition of β-secretase: Aβ reduction in rat CSF and brain
Method: In Vivo Inhibition of β-Secretase
Animals to be used in this experiment can be wild type, transgenic, or gene knockout animals.
A separate group of animals receive 2% hydroxypropyl methylcellulose, 1% Tween80 alone, containing no test compound, and serve as a vehicle-control group. At the end of the test period, animals are sacrificed and brain tissues, plasma or cerebrospinal fluid are collected. […] Homogenates are centrifuged at 355,000 g, 4° C. for 30 minutes. CSF or brain supernatants are then analyzed for the presence of Aβ by specific sandwich ELISA assays based on ECL (Electrochemiluminescence) technology. For example, rat Aβ40 is measured using biotinylated-4G8 (Signet) as a capture antibody and Fab40 (an in-house antibody specific to the C-terminal of Aβ40) as a detection antibody.

[2] = target: human recombinant BACE2 (Homo sapiens (Human), UniProt Q9Y5Z0); assay: In vitro enzymatic BACE2 FRET assay; format: biochemical; details: read-out: BACE2 Enzyme IC50
[3] = target: T1, BACE1 (Homo sapiens (Human), UniProt P56817); assay: In vitro BACE1 cell-based assay (Aβ40 in conditioned medium of cells stably expressing APP, HTRF); details: Aβ40 in conditioned media after 24 h incubation
Target sequence in this assay (P56817 46-501, species assumed): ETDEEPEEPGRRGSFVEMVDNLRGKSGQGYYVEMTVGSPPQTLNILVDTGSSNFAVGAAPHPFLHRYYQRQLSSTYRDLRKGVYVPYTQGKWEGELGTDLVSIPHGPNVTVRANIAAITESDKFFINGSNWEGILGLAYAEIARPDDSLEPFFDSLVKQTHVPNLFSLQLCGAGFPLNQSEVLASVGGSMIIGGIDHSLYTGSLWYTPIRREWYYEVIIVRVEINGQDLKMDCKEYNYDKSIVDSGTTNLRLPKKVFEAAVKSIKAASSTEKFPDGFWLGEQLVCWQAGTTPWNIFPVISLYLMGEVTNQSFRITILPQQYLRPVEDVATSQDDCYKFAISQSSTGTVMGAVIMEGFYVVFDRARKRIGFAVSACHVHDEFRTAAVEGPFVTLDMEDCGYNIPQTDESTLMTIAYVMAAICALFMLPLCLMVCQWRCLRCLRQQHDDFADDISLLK

[4] = target: T1, BACE1; assay: In vitro enzymatic BACE1 FRET assay; format: biochemical; details: read-out: BACE1 Enzyme IC50
Target sequence in this assay (P56817 46-501): as the sequence (P56817 46-501, species assumed) above

[5] = target: Cathepsin D (CatD) (Homo sapiens (Human), UniProt P07339); assay: In vitro enzymatic Cathepsin D (CatD) FRET assay; format: biochemical; details: read-out: Cat D Enzyme IC50
[6] = phase I clinical trials; cited from earlier work

Cathepsin D (CatD), sequence (P07339 65-412, species assumed): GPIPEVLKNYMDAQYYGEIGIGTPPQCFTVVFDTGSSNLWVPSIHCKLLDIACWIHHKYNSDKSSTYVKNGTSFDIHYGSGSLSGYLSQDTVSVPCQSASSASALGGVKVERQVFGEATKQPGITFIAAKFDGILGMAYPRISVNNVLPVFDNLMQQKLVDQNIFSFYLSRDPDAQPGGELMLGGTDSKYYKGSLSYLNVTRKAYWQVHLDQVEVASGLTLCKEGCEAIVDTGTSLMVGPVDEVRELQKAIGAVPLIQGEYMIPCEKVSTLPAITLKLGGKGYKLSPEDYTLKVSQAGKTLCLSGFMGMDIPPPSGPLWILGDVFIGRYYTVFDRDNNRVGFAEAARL
β-secretase, sequence (P56819 46-501): as the sequence (P56817 46-501, species assumed) above, with G82S, V162I, L165I, S180T, V182A, I340V, L393A, Q443H counted along it
human recombinant BACE2, sequence (Q9Y5Z0 63-518): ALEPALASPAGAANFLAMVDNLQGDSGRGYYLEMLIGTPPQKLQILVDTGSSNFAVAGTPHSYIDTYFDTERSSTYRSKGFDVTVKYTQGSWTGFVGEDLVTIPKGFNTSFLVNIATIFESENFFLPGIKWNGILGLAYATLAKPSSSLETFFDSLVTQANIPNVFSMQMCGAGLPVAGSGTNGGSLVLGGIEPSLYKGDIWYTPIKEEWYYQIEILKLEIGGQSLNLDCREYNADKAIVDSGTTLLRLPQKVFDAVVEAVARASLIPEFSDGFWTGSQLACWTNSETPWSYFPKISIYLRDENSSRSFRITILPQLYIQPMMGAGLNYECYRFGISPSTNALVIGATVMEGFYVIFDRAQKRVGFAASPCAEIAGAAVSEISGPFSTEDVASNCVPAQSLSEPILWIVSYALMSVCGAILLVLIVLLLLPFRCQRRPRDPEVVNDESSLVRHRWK

| Compound | % Aβ reduction in rat CSF at 10 mpk [1] [%] | % Aβ reduction in rat brain at 10 mpk [1] [%] | pIC50 [2] | pIC50 [3] | pIC50 [4] | pIC50 [5] | safety profile [6] |
| --- | --- | --- | --- | --- | --- | --- | --- |
| C#C[C@H](C)Oc1cnc(/C(F)=C/c2ccc(F)c([C@@]3(C)N=C(N)N(C)S(=O)(=O)C3(C)C)c2)cn1 [Example 186, (R)-3-amino-5-(5-((Z)-2-(5-((S)-but-3-yn-2-yloxy)pyrazin-2-yl)-2-fluorovinyl)-2-fluorophenyl)-2,5,6,6-tetramethyl-5,6-dihydro-2H-1,2,4-thiadiazine 1,1-dioxide] | 19 | 43 | 6.35 | 7.62 | 8.30 | 3.43 | – |
| C#C[C@H](C)Oc1cnc(/C(F)=C/c2ccc(F)c([C@]3(C)CS(=O)(=O)C(C)(C)C(N)=N3)c2)cn1 [Example 160, (R)-5-amino-3-(5-((Z)-2-(5-((S)-but-3-yn-2-yloxy)pyrazin-2-yl)-2-fluorovinyl)-2-fluorophenyl)-3,6,6-trimethyl-3,6-dihydro-2H-1,4-thiazine 1,1-dioxide] | 52 | 34 | 6.92 | 8.30 | 9.00 | 3.68 | – |
| C#C[C@H](C)Oc1cnc(/C(F)=C/c2ccc(F)c([C@@]3(C)N=C(N)[C@@]4(CF)CC[C@@H]3S4(=O)=O)c2)cn1 [Example 128, (1R,4R,5S)-2-amino-4-(5-((Z)-2-(5-((S)-but-3-yn-2-yloxy)pyrazin-2-yl)-2-fluorovinyl)-2-fluorophenyl)-1-(fluoromethyl)-4-methyl-8-thia-3-azabicyclo[3.2.1]oct-2-ene 8,8-dioxide] | 33 | 35 | 6.83 | 7.74 | 8.40 | 3.90 | – |
| CN1C(N)=N[C@](C)(c2cc(/C=C(\F)c3ccc(C#N)cn3)ccc2F)C2(CC2)S1(=O)=O [Example 127, (R,Z)-6-(2-(3-(6-amino-5,8-dimethyl-4,4-dioxido-4-thia-5,7-diazaspiro[2.5]oct-6-en-8-yl)-4-fluorophenyl)-1-fluorovinyl)nicotinonitrile] | 64 | 70 | 6.76 | 8.10 | 8.22 | 3.89 | – |
| C#CCOc1cnc(/C(F)=C/c2cc(F)c(F)c([C@]3(C)CS(=O)(=O)C(C)(C)C(N)=N3)c2)cn1 [Example 204, (R,Z)-5-amino-3-(2,3-difluoro-5-(2-fluoro-2-(5-(prop-2-yn-1-yloxy)pyrazin-2-yl)vinyl)phenyl)-3,6,6-trimethyl-3,6-dihydro-2H-1,4-thiazine 1,1-dioxide] | 65 | 61 | 6.75 | 8.05 | 8.30 | 4.37 | – |
| CN1C(=N)N[C@](C)(c2cc(NC(=O)c3ccc(F)cn3)ccc2F)CS1(=O)=O [MK-8931] | – | – | – | – | – | – | no immediately noticeable side effects |
| CC#C[C@H](CC)Oc1cnc(/C(F)=C/c2ccc(F)c([C@]3(C)CS(=O)(=O)C(C)(C)C(N)=N3)c2)cn1 [Example 199, (R)-5-amino-3-(2-fluoro-5-((Z)-2-fluoro-2-(5-((S)-hex-4-yn-3-yloxy)pyrazin-2-yl)vinyl)phenyl)-3,6,6-trimethyl-3,6-dihydro-2H-1,4-thiazine 1,1-dioxide] | 43 | 58 | – | – | – | – | – |
| C#CCOc1cnc(/C(F)=C/c2cnc(F)c([C@]3(C)CS(=O)(=O)C(C)(C)C(N)=N3)c2)cn1 [Example 205, (R,Z)-5-amino-3-(2-fluoro-5-(2-fluoro-2-(5-(prop-2-yn-1-yloxy)pyrazin-2-yl)vinyl)pyridin-3-yl)-3,6,6-trimethyl-3,6-dihydro-2H-1,4-thiazine 1,1-dioxide] | 68 | 65 | 6.89 | 8.15 | 8.30 | 3.61 | – |
| CN1C(N)=N[C@](C)(c2cc(/C=C(\F)c3cnc(OCc4ncco4)cn3)cc(F)c2F)CS1(=O)=O [Example 166, (R,Z)-3-amino-5-(2,3-difluoro-5-(2-fluoro-2-(5-(oxazol-2-ylmethoxy)pyrazin-2-yl)vinyl)phenyl)-2,5-dimethyl-5,6-dihydro-2H-1,2,4-thiadiazine 1,1-dioxide] | 45 | 26 | 7.05 | 8.40 | 8.40 | 4.39 | – |
| Cc1noc(COc2cnc(/C(F)=C/c3ccc(F)c([C@]4(C)CS(=O)(=O)N(C)C(N)=N4)c3)cn2)n1 [Example 146, (R,Z)-3-amino-5-(2-fluoro-5-(2-fluoro-2-(5-((3-methyl-1,2,4-oxadiazol-5-yl)methoxy)pyrazin-2-yl)vinyl)phenyl)-2,5-dimethyl-5,6-dihydro-2H-1,2,4-thiadiazine 1,1-dioxide] | 12 | 16 | 7.01 | 8.22 | 8.52 | 3.82 | – |
| CC1(C)C(N)=N[C@@]2(c3ccc(/C=C(\F)c4ccc(C#N)cn4)cc3F)COC[C@H]2S1(=O)=O [Example 261, 6-((Z)-2-(4-((4aS,7aS)-3-amino-2,2-dimethyl-1,1-dioxido-4a,5,7,7a-tetrahydro-2H-furo[3,4-b][1,4]thiazin-4a-yl)-3-fluorophenyl)-1-fluorovinyl)nicotinonitrile] | 69 | 60 | 7.92 | 7.47 | 8.70 | 3.75 | – |
| CN1C(N)=N[C@](C)(c2cc(/C=C(\F)c3nc(C#N)cs3)ccc2F)CS1(=O)=O [Example 267, 2-((Z)-2-(3-((5R)-3-amino-2,5-dimethyl-1,1-dioxido-5,6-dihydro-2H-1,2,4-thiadiazin-5-yl)-4-fluorophenyl)-1-fluoroethenyl)-1,3-thiazole-4-carbonitrile] | – | – | 8.22 | 7.42 | 7.59 | 4.24 | – |
| CN1C(N)=N[C@](C)(c2cc(/C=C(\F)c3cnc(Cl)cn3)ccc2F)C2(CC2)S1(=O)=O [Example 139, (8R)-8-(5-((Z)-2-(5-chloro-2-pyrazinyl)-2-fluoroethenyl)-2-fluorophenyl)-5,8-dimethyl-4-thia-5,7-diazaspiro[2.5]oct-6-en-6-amine 4,4-dioxide] | – | – | 7.15 | 6.70 | 7.31 | 3.37 | – |
| C[C@@H]1COc2nc(/C(F)=C/c3ccc(F)c([C@]4(C)CS(=O)(=O)N(C)C(N)=N4)c3)ncc2O1 [Example 235, (R)-3-amino-5-(2-fluoro-5-((Z)-2-fluoro-2-((R)-6-methyl-6,7-dihydro-[1,4]dioxino[2,3-d]pyrimidin-2-yl)vinyl)phenyl)-2,5-dimethyl-5,6-dihydro-2H-1,2,4-thiadiazine 1,1-dioxide] | – | – | 6.27 | 6.89 | 6.57 | 3.80 | – |
| CN1C(N)=N[C@](C)(c2cc(/C=C(\F)c3ccc(OC(F)(F)F)cn3)ccc2F)CS1(=O)=O [Example 258, (R,Z)-3-amino-5-(2-fluoro-5-(2-fluoro-2-(5-(trifluoromethoxy)pyridin-2-yl)vinyl)phenyl)-2,5-dimethyl-5,6-dihydro-2H-1,2,4-thiadiazine 1,1-dioxide] | – | – | 7.40 | 7.48 | 8.22 | 4.26 | – |
| Cc1noc(COc2cnc(/C(F)=C/c3ccc(F)c([C@@]4(C)N=C(N)N(C)S(=O)(=O)C45CC5)c3)cn2)n1 [Example 161, (8R)-8-(2-fluoro-5-((Z)-2-fluoro-2-(5-((3-methyl-1,2,4-oxadiazol-5-yl)methoxy)-2-pyrazinyl)ethenyl)phenyl)-5,8-dimethyl-4-thia-5,7-diazaspiro[2.5]oct-6-en-6-amine 4,4-dioxide] | – | – | 5.58 | 7.32 | 7.10 | 4.22 | – |
| CN1C(N)=N[C@](C)(c2cc(/C=C(\F)c3ccc(Cl)cn3)cc(F)c2F)CS1(=O)=O [Example 152, (R,Z)-3-amino-5-(5-(2-(5-chloropyridin-2-yl)-2-fluorovinyl)-2,3-difluorophenyl)-2,5-dimethyl-5,6-dihydro-2H-1,2,4-thiadiazine 1,1-dioxide] | – | – | 8.22 | 7.33 | 7.82 | 4.31 | – |
| CN1C(N)=N[C@](C)(c2cc(/C=C(\F)c3ccc4c(n3)OCCO4)ccc2F)CS1(=O)=O [Example 255, (5R)-5-(5-((Z)-2-(2,3-dihydro[1,4]dioxino[2,3-b]pyridin-6-yl)-2-fluoroethenyl)-2-fluorophenyl)-2,5-dimethyl-5,6-dihydro-2H-1,2,4-thiadiazin-3-amine 1,1-dioxide] | – | – | 6.34 | 5.52 | 5.42 | 3.91 | – |
| CC1(C)C(N)=N[C@](C)(c2cc(/C=C(\F)c3ccc(C#N)cn3)ccc2F)CS1(=O)=O [Example 113, (R,Z)-6-(2-(3-(5-amino-3,6,6-trimethyl-1,1-dioxido-3,6-dihydro-2H-1,4-thiazin-3-yl)-4-fluorophenyl)-1-fluorovinyl)nicotinonitrile] | – | – | 8.05 | 8.40 | 8.70 | 4.00 | – |
| CN1C(N)=N[C@](C)(c2cc(/C=C(\F)c3ccc(C#CC4CC4)cn3)ccc2F)CS1(=O)=O [Example 251, (R,Z)-3-amino-5-(5-(2-(5-(cyclopropylethynyl)pyridin-2-yl)-2-fluorovinyl)-2-fluorophenyl)-2,5-dimethyl-5,6-dihydro-2H-1,2,4-thiadiazine 1,1-dioxide] | – | – | 7.44 | 6.96 | 8.15 | 4.47 | – |
